Target: T1, SoArsAB (Sporomusa ovata, UniProt F6MZ55+F6MZ56)
T1 sequence (F6MZ55 5-350 limits assumed): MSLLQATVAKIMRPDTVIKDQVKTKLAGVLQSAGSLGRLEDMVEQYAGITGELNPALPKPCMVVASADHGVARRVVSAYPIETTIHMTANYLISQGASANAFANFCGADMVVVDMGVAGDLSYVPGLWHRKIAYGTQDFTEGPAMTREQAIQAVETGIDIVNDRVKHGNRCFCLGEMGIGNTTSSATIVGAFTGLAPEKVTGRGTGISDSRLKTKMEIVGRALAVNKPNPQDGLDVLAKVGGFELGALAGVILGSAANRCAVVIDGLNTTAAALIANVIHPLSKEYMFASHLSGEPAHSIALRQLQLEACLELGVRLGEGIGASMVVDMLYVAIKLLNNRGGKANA
T1 sequence (F6MZ56 1-350): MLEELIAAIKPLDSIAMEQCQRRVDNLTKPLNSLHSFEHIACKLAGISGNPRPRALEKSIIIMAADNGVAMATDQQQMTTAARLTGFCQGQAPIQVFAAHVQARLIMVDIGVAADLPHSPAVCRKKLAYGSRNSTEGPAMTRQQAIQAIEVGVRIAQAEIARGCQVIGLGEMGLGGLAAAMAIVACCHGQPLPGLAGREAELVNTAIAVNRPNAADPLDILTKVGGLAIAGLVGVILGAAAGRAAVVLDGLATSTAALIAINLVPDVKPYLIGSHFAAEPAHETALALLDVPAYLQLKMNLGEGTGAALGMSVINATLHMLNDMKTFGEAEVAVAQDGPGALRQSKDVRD
Assay: HPLC product formation
Assay type: biochemical
Conditions: pH 10, 37 °C, 6 h

O=C([O-])c1ccc[n+]([C@@H]2O[C@H](COP(=O)(O)O)[C@@H](O)[C@H]2O)c1 [NaMN, nicotinate mononucleotide]
HPLC product formation (3 mM p-cresol): using SeCobT^WT, SeCobT^S80Y,Q88M,L175M or SoArsAB with NaMN and p-cresol

Cc1ccc(O)cc1 [p-cresol]
HPLC product formation (3 mM NaMN): using SeCobT^WT, SeCobT^S80Y,Q88M,L175M or SoArsAB with NaMN and p-cresol

Reference: paper PMC3900240 (Biochimica et biophysica acta, 2013)
